Holding throughout (assay type): cell-based
Assay [1] relates to HT29 cells. Briefly: Adenovirus luciferase gene transfer into confluent HT29 cells. Particulars: for activation of adenovirus gene transfer (luciferase): 100 micromolar, procedure of Example 1 (MOI 50, assay 48 hours later), screen of 1032 NSC library compounds; for activation of adenovirus gene transfer (luciferase activity): MOI 1, 3 or 10, compound 30 nM, 300 nM, 10 uM, 30 uM or 100 uM, 48 hours. The method, then: HT29 cells are grown in 96-well plates. The cells are seeded at near confluency, about 300,000 cells per well, and infected with adenovirus 3-4 days later. […] For screening purposes, cells are grown on plastic. […] The activity of candidate compounds may be also confirmed using polarized monolayers grown on filters. Once confluent, HT29 cells are very difficult to transduce with adenoviral constructs. Fewer than 1 in 100 cells express adenoviral transgenes at multiplicity of infection (MOI) of approximately 50. A replication deficient adenovirus encoding firefly luciferase or the EGFP at an MOI of 50 for each well of cells in low serum medium is applied for 4 hours at 37° C. Confluent HeLa cells are used as a positive control. A set of cells is incubated with virus but no gene transfer activating compound as a negative control. Test drugs are incubated along with the virus. Forty-eight hours later, the cells are assayed for luciferase by standard techniques. Luciferase is assayed using a commercially available kit (Promega) which allows quantitative measurements of adenoviral gene transfer.
(§1) FIGS. 2A and 2B show a comparison of luciferase expression (y-axis, light units) vs. MOI (x-axis) in HeLa and HT29 cells infected with adenovirus under various conditions. For these studies, cells are grown in 96-well plates. The HT29 cells are seeded at near confluency, about 300,000 cells per well, and infected with adenovirus 3-4 days later. The cells are infected with luciferase-expressing, replication-deficient adenovirus at MOIs of 1, 3 or 10 by applying the virus to wells of cells in low serum medium for 4 hours at 37° C. In addition, the cells are incubated with gene transfer activating compound 675865 at a concentration of 30 nM, 300 nM, 10 uM, 30 uM or 100 uM along with the virus. A control set of cells is incubated with virus at MOIs of 1, 3 or 10, but no gene transfer activating compound is included. Forty-eight hours later, the cells are assayed for luciferase activity by standard techniques. […] FIGS. 3A and 3B present data from these experiments in which luciferase expression (y-axis, light units) is plotted vs. compound 675865 concentration (x-axis).
as §1, with “6A” for “2A”, “6B” for “2B”, “143491” for “675865”, “7A” for “3A”, “7B” for “3B”
(§2) Luciferase activity is measured using a commercially available assay kit (Bright-Glo™, Promega) designed for high throughput screening. Briefly, the Bright-Glo™ substrate is dissolved in Bright-Glo™ assay buffer at room temperature. 50 μl of the premixed Bright-Glo™ reagent is directly added to each well of the assay plate. Luminescence is measured in a microluminometer (Harta Instrument, Gaithersburg, Md.).

Assay [2] concerns HeLa and HT29 cells. Briefly: Adeno-associated virus luciferase gene transfer into HeLa and HT29 cells. Particulars: MOI 2.78, 8.33 or 22, compound 30 nM to 100 uM, 48 hours. How it is done: FIGS. 8A and 8B show a comparison of luciferase expression (y-axis, light units) vs. MOI (x-axis) in HeLa and HT29 cells infected with adeno-associated virus under various conditions. For these studies, cells are grown as described in Example 8. The HT29 cells are seeded at near confluency, about 300,000 cells per well, and infected with adenovirus 3-4 days later. The cells are infected with luciferase-expressing, adeno-associated virus at MOIs of 2.78, 8.33 or 22 by applying the virus to wells of cells in low serum medium for 4 hours at 37° C. In addition, the cells are incubated with gene transfer activating compound 143491 at a concentration of 30 nM, 300 nM, 10 uM, 30 uM or 100 uM along with the virus. A control set of cells is incubated with virus at MOIs of 2.78, 8.33 or 22, but no gene transfer activating compound is included. Forty-eight hours later, the cells are assayed for luciferase activity by standard techniques. Luciferase activity is enhanced in cells treated with compound 143491 compared with controls. […]
Luciferase activity is measured using a commercially available assay kit (Bright-Glo™, Promega) designed for high throughput screening. […] Luminescence is measured in a microluminometer (Harta Instrument, Gaithersburg, Md.).

Assay [3] has as its system HT29 cells. Briefly: Adenovirus EGFP gene transfer, fluorescence microscopy. Particulars: 100 micromolar compound, adenovirus EGFP MOI 0.1-10, 4 hours. The method, then:
HT29 or HeLa cells are grown in 96-well plates. The HT29 cells are seeded at near confluency, about 300,000 cells per well, and infected with adenovirus 3-4 days later. Confluent HeLa cells are used as a positive control. […] A replication deficient adenovirus encoding the EGFP gene is applied at an MOI of 0.1-10 to wells of cells in low serum medium for 4 hours at 37° C. Gene transfer activating compounds are incubated along with the virus at concentrations of 100 micromolar. Cells are visualized with a fluorescent microscope where green fluorescence indicates EGFP expression. A set of cells is incubated with virus but no gene transfer activating compound.

For assay [4], the system named is Calu3 cells. Briefly: Adenovirus luciferase gene transfer into Calu3 cells grown on filters or plastic. The note with it: 40 μm compound; 10 MOI (FIG. 4A). The method, then:
Lung epithelial cells which form tight junctions in vitro, Calu3, are grown on filters (Corning Costar Transwell®—polyester—pore size 0.4 μm) or plastic well allowing apical and basolateral specialization to occur.
Calu3 cells grown as described in Example 9 are incubated with adenovirus at 10 MOI and various compounds at a concentration of 40 micromolar. FIG. 4B indicates luciferase activity measured under these conditions.
Calu3 cells grown as described in Example 9 are incubated with luciferase-expressing adenovirus and various gene transfer activating compounds.
as §2

Assay [5] has as its system HT29 cells. Briefly: Lentivirus luciferase gene transfer into HT29 cells. Particulars: MOI 0.002, 0.02 or 0.2, compound 30 nM to 100 uM, 48 hours. How it is done:
FIG. 5A show a comparison of luciferase expression (y-axis, light units) vs. MOI (x-axis) in HT29 cells infected with lentivirus under various conditions. For these studies, cells are grown in 96-well plates as described in Example 8. The HT29 cells are seeded at near confluency, about 300,000 cells per well, and infected with a lentivirus vector expressing luciferase 3-4 days later. The cells are infected with lentivirus at MOIs of 0.002, 0.02 or 0.2 by applying the virus to wells of cells in low serum medium for 4 hours at 37° C. In addition, the cells are incubated with gene transfer activating compound 675865 at a concentration of 30 nM, 300 nM, 10 uM, 30 uM or 100 uM along with the virus. A control set of cells is incubated with virus at MOIs of 0.002, 0.02 or 0.2 but no gene transfer activating compound is included. Forty-eight hours later, the cells are assayed for luciferase activity by standard techniques.
FIG. 5B present data from these experiments in which luciferase expression (y-axis, light units) is plotted vs. compound 675865 concentration (x-axis).
Luciferase activity is measured using a commercially available assay kit (Bright-Glo™, Promega) designed for high throughput screening. Briefly, the Bright-Glo™ substrate is dissolved in Bright-Glo™ assay buffer at room temperature. […] Luminescence is measured in a microluminometer (Harta Instrument, Gaithersburg, Md.).

Turning to `CN(C)CCCNc1c2ccccc2nc2ccc(F)cc12.Cl` [NSC 109325], in assay [1], the “activation of adenovirus gene transfer (luciferase)” value (shortened to “activation … (luciferase)”) is given as “activation of adenovirus gene transfer”.
For `COc1cccc2c1C(=O)c1c(O)c3c(c(O)c1C2=O)CC(O)(/C(C)=N/O)CC3OC1CC(N)C(O)C(C)O1` (stereo not shown) [NSC 143491], in assay [1], the “activation … (luciferase)” value is “activation of adenovirus gene transfer” and the “activation of adenovirus gene transfer (luciferase activity)” value was “activation of adenovirus gene transfer”. Further, the “luciferase activity compared with controls, adeno-associated virus vector” value in assay [2] was “enhanced”.
`O=C(O)c1ccccc1N=Cc1ccc(N(CCCl)CCCl)cc1` [NSC 101492]: the “activation … (luciferase)” value in assay [1] is listed as “activation of adenovirus gene transfer”.
Consider `CN(C)CCCN=c1c2ccccc2n(C)c2[nH]c(=O)n(C)c(=O)c12` [NSC 373989], for which, in assay [1], the “activation … (luciferase)” value is “activation of adenovirus gene transfer”.
`Nc1ncnc2c(C3OC(CO)C(O)C3O)nsc12` (stereo not shown) [NSC 675865]: in assay [1], the “activation … (luciferase)” value is listed as “activation of adenovirus gene transfer” and the “activation of adenovirus gene transfer (luciferase activity)” value is “activation of adenovirus gene transfer”. Also, the “activation of adenovirus gene transfer (EGFP green fluorescence)” value in assay [3] is recorded as “activation of adenovirus gene transfer”. The “luciferase activity in Calu3 cells infected with luciferase expressing adenovirus” value in assay [4] is given as “increased luciferase activity”. Further, the “luciferase activity, lentivirus vector” value in assay [5] is reported as “enhancement of luciferase activity”.
On to `CCCCCCCCCCCCCC[As](=O)(O)O` [NSC 106191], for which the “activation … (luciferase)” value in assay [1] was “activation of adenovirus gene transfer”.
The same measure, in the same setting: the same measure for `COc1ccc(CC2C(=O)NC(C)C(=O)N(C)C3C(=O)N(C)C(Cc4ccc(O)c(c4)Oc4ccc(cc4)C3O)C(=O)NC(C)C(=O)NC(C)C(=O)N2C)cc1` (stereo not shown) [NSC 259968]: “activation of adenovirus gene transfer”; for `O=C(CC(=O)c1cc(Cl)ccc1O)c1cccnc1` [NSC 73609]: “activation of adenovirus gene transfer”; for `CN(C)C(=O)CCCc1ccc(N(CCCl)CCCl)cc1` [NSC 108613]: “activation of adenovirus gene transfer”.
For the compound `CC1=C(C)C(C#N)(C(=O)CBr)C(=N)O1` (stereo not shown) [NSC 128720], the “activation … (luciferase)” value in assay [1] was “activation of adenovirus gene transfer”.

Source of the values: US7473527B2, “Compounds promoting delivery of genes” (The UAB Research Foundation, priority 2002, dated 2009).
